Measurements reported in patent US6673938B1, “Substituted pyridine herbicides” (Syngenta Participations AG, priority 1998, dated 2004).

Legend:
[1] = tested on: Monocotyledonous and dicotyledonous test plants; assay: Herbicidal action before emergence of the plants (pre-emergence action); type: in vivo; settings: evaluated after 3 weeks, nine-step scale; for Pre-emergence action, Abutilon / Pre-emergence action, Amaranthus / Pre-emergence action, Chenop. / Pre-emergence action, Digitaria / Pre-emergence action, Echino. / Pre-emergence action, Panicum: 250 g/ha; for pre-emergence action, Cyperus / pre-emergence action, Ipomoea / pre-emergence action, Setaria / pre-emergence action, Sinapis / pre-emergence action, Solanum / pre-emergence action, Stellaria: 2000 g/ha
Protocol: Monocotyledonous and dicotyledonous test plants are sown in standard soil in plastic pots. Immediately after sowing, the test substances as aqueous suspensions (prepared with a 25% wettable powder (Example F3, b) in accordance with WO 97/34485) or as emulsions (prepared with a 25% emulsion concentrate (Example F1, c)) are sprayed on at a rate of 2 kg of a.i./ha or 250 g of a.i./ha (500 l of water/ha). The test plants are then grown in the greenhouse under optimal conditions. After a test period of 3 weeks, the experiment is evaluated with reference to a nine-step scale (1=complete damage, 9=no effect). Score figures of 1 to 4 (in particular 1 to 3) mean a good to very good herbicidal action.

[2] = tested on: Monocotyledonous and dicotyledonous test plants; assay: Post-emergence herbicidal action; type: in vivo; settings: evaluated after approximately 18 days; for Post-emergence action: Abutilon (score, nine-step scale) / Post-emergence action: Chenop. (score, nine-step scale) / Post-emergence action: Digitaria (score, nine-step scale) / Post-emergence action: Echino. (score, nine-step scale) / Post-emergence action: Ipopur. (score, nine-step scale) / Post-emergence action: Panicum (score, nine-step scale) / Post-emergence action: Xanth. (score, nine-step scale): 250 g/ha, sprayed at 4- to 6-leaf stage; for Post-emergence action, Ipomoea / Post-emergence action, Lolium / Post-emergence action, Setaria / Post-emergence action, Sinapis / Post-emergence action, Solanum / Post-emergence action, Stellaria: 2000 g/ha, sprayed in 4- to 6-leaf stage, nine-step scale
Protocol: Monocotyledonous and dicotyledonous test plants are grown in the greenhouse in plastic pots containing standard soil, and, in the 4- to 6-leaf stage, sprayed with an aqueous suspension of the test substances of the formula I prepared with a 25% wettable powder (Example F3, b) in accordance with WO 97/34485) or with an emulsion of the test substances of the formula I prepared with a 25% emulsion concentrate (Example F1, c) in accordance with WO 97/34485), corresponding to a rate of 2 kg of a.i./ha or 250 g of a.i./ha (500 l of water/ha). The test plants are subsequently grown on in the greenhouse under optimal conditions. After a test period of approximately 18 days, the test is evaluated with reference to a nine-step scale (1=complete damage, 9=no effect). Score figures of 1 to 4 (in particular 1 to 3) mean a good to very good herbicidal action. In this test, the compounds of the formula I show a potent herbicidal action.

COc1nc(C(F)(F)F)ccc1C(=O)C1=C(O)C(C)(C)CCC1=O [Compound A1022-B24]
Pre-emergence action, Abutilon [1]: 3 | Pre-emergence action, Amaranthus [1]: 4 | Pre-emergence action, Chenop. [1]: 1 | Pre-emergence action, Digitaria [1]: 4 | Pre-emergence action, Echino. [1]: 4 | Pre-emergence action, Panicum [1]: 2

COCc1nc(C(F)(F)F)ccc1C(=O)C1=C(O)CC(C)(C)CC1=O [Compound A8-B1063]
Pre-emergence action, Abutilon [1]: 2 | Pre-emergence action, Amaranthus [1]: 4 | Pre-emergence action, Chenop. [1]: 1 | Pre-emergence action, Digitaria [1]: 3 | Pre-emergence action, Echino. [1]: 3 | Pre-emergence action, Panicum [1]: 2

COC(=O)C1(OC)CCC(=O)C(C(=O)c2ccc(C(F)(F)F)nc2C)=C1O (stereo not drawn) [Compound A2-B1067]
pre-emergence action, Cyperus [1]: 2 | pre-emergence action, Ipomoea [1]: 3 | pre-emergence action, Setaria [1]: 2 | pre-emergence action, Sinapis [1]: 2 | pre-emergence action, Solanum [1]: 3 | pre-emergence action, Stellaria [1]: 3

COCc1nc(C(F)(F)F)ccc1C(=O)C1=C(O)CC2CCCC2C1=O (stereo not drawn) [Compound A8-D36]
Post-emergence action: Abutilon (score, nine-step scale) [2]: 2 | Post-emergence action: Chenop. (score, nine-step scale) [2]: 2 | Post-emergence action: Digitaria (score, nine-step scale) [2]: 3 | Post-emergence action: Echino. (score, nine-step scale) [2]: 2 | Post-emergence action: Ipopur. (score, nine-step scale) [2]: 3 | Post-emergence action: Panicum (score, nine-step scale) [2]: 3 | Post-emergence action: Xanth. (score, nine-step scale) [2]: 3

Cc1nc(C(F)(F)F)ccc1C(=O)C1=C(O)C(C)(C)OCC1=O [Compound A2-B552]
pre-emergence action, Cyperus [1]: 1 | pre-emergence action, Ipomoea [1]: 2 | pre-emergence action, Setaria [1]: 2 | pre-emergence action, Sinapis [1]: 2 | pre-emergence action, Solanum [1]: 1 | pre-emergence action, Stellaria [1]: 2

COCc1nc(C(F)(F)F)ccc1C(=O)C1=C(O)C(C)C2CC2C1=O (stereo not drawn) [Compound A8-D109]
Post-emergence action: Abutilon (score, nine-step scale) [2]: 3 | Post-emergence action: Chenop. (score, nine-step scale) [2]: 3 | Post-emergence action: Digitaria (score, nine-step scale) [2]: 3 | Post-emergence action: Echino. (score, nine-step scale) [2]: 3 | Post-emergence action: Ipopur. (score, nine-step scale) [2]: 2 | Post-emergence action: Panicum (score, nine-step scale) [2]: 3 | Post-emergence action: Xanth. (score, nine-step scale) [2]: 1

Cc1cc(C(F)(F)F)ncc1C(=O)C1=C(O)C(C)(C)CCC1=O [Compound A531-B24]
Post-emergence action, Ipomoea [2]: 2 | Post-emergence action, Lolium [2]: 2 | Post-emergence action, Setaria [2]: 2 | Post-emergence action, Sinapis [2]: 1 | Post-emergence action, Solanum [2]: 2 | Post-emergence action, Stellaria [2]: 2

Cc1nc(C(F)(F)F)ccc1C(=O)C1=C(O)CC(C)(C(F)(F)F)CC1=O (stereo not drawn) [Compound A2-B1066]
Post-emergence action, Ipomoea [2]: 1 | Post-emergence action, Lolium [2]: 3 | Post-emergence action, Setaria [2]: 2 | Post-emergence action, Sinapis [2]: 1 | Post-emergence action, Solanum [2]: 2 | Post-emergence action, Stellaria [2]: 2

CC1(C)CCC(=O)C(C(=O)c2ccc(C(F)(F)F)nc2C2CC2)=C1O [Compound A6-B24]
Post-emergence action, Ipomoea [2]: 1 | Post-emergence action, Lolium [2]: 3 | Post-emergence action, Setaria [2]: 2 | Post-emergence action, Sinapis [2]: 1 | Post-emergence action, Solanum [2]: 1 | Post-emergence action, Stellaria [2]: 2

Cc1nc(C(F)(F)F)ccc1C(=O)C1=C(O)C2CC2C(C)([S+](C)[O-])C1=O (stereo not drawn) [Compound A2-D114, 5-Hydroxy-2-methanesulfinyl-2-methyl-4-(2-methyl-6-trifluoromethylpyridine-3-carbonyl)bicyclo[4.1.0]hept-4-en-3-one]
Post-emergence action, Ipomoea [2]: 2 | Post-emergence action, Lolium [2]: 1 | Post-emergence action, Setaria [2]: 1 | Post-emergence action, Sinapis [2]: 1 | Post-emergence action, Solanum [2]: 1 | Post-emergence action, Stellaria [2]: 1

CCOC(=O)C1(C)C(O)=C(C(=O)c2ccc(C(F)(F)F)nc2COC)C(=O)C2CC21 (stereo not drawn) [Compound A8-D111]
Post-emergence action: Abutilon (score, nine-step scale) [2]: 3 | Post-emergence action: Chenop. (score, nine-step scale) [2]: 3 | Post-emergence action: Digitaria (score, nine-step scale) [2]: 3 | Post-emergence action: Echino. (score, nine-step scale) [2]: 3 | Post-emergence action: Ipopur. (score, nine-step scale) [2]: 2 | Post-emergence action: Panicum (score, nine-step scale) [2]: 3 | Post-emergence action: Xanth. (score, nine-step scale) [2]: 1
